According to US20230233704A1, “HYDROGEL COMPOSITION AND ASSOCIATED METHOD OF USE” (Quthero, Inc., priority 2017, published 2023):

Assays:
[1] = test system: Primary neonatal human epithelial keratinocytes (HEKs); experiment: BrdU proliferation assay of HEKs with soluble QHREDGS peptide; format: cell-based; settings: soluble peptide Low 100 μM, High 650 μM; 8 h BrdU
Procedure: (§1) The effect of the QHREDGS peptide as in the soluble form was assessed on HEKs in vitro. 24- or 96-well plates were coated with 0.05 mg/mL type I collagen (BD Biosciences) in 0.02 N acetic acid overnight and then rinsed once with phosphate buffered saline (PBS) (Lonza). HEKs were seeded in complete EpiLife medium and attached for at least 2 h. 100 μM or 650 μM QHREDGS was supplemented to the EpiLife medium as Low or High dosage, respectively.
HEKs were seeded at a density of 1×10^4 cells/cm^2 in collagen-coated 96-well plates. After 4 h, media was removed and replenished with EpiLife media supplemented with 20 μM bromodeoxyuridine (BrdU) (Sigma Aldrich) in the presence or absence of QHREDGS peptide. After incubating for 8 h, proliferating HEKs were identified by BrdU staining. Briefly, HEKs were fixed with 4% paraformaldehyde (PFA), permeablized with 0.25% triton X, treated with DNase for 30 min at 37° C., and blocked with 5% bovine serum albumin (BSA). The HEKs were then incubated with a rat anti-BrdU antibody (AbD Serotec) overnight at 4° C. followed by an anti-rat TRITC-labelled secondary antibody (Jackson Immuno Research). BrdU-positive cells were counted in 5 randomly chosen fields under 20× magnification and then normalized to the total number of cells labelled by 4′,6-diamidino-2-phenylindole (DAPI) counterstaining.

[2] = test system: Akt and MAPKp42/44 phosphorylation; experiment: Western blotting of HEKs under H2O2 stress with soluble QHREDGS peptide; format: cell-based, human; settings: 500 μM H2O2, 15 min, soluble peptide 100 μM / 650 μM
Procedure: (§2) HEKs were seeded at a sub-confluent density in a 96-well plate for the cell integrity assay or a 24-well plate for Western blot analysis, and serum starved overnight. The HEKs were then pretreated with soluble QHREDGS (100 μM for Low and 650 μM for High) for 2 h. The cells were then exposed to fresh EpiLife basal medium supplemented with 500 μM H2O2 in the presence or absence of QHREDGS peptide. For the cell integrity assay, the cells were stained using the EarlyTox™ Cell Integrity kit (Molecular Devices) after 2 h of H2O2 treatment. For the Western analysis, another set of wells were seeded in parallel for the Ctrl, Low and High conditions and protein samples were collected after 0, 15 min and 2 h of H2O2 treatment.
Protein was isolated from keratinocytes in the 24-well plate after H2O2 treatment using 60-80 μL Lysis Buffer per well (10× Cell Lysis Buffer, Cell Signaling Technology; complete Mini, EDTA-free protease inhibitor cocktail tablet, Roche; in ddH2O). Proteins were separated by electrophoresis in Novex Tris-Glycine gels (Life technologies) and transferred using the iBlot (Life technologies) to a PVDF iBlot Transfer Stack (Life technologies). Membranes were probed for phospho-p44/42 MAPK (pMAPKp42/44), p44/42 MAPK (MAPKp42/44), phospho-Akt, Akt, or GAPDH as a loading control (Millipore). All primary antibodies were purchased from Cell Signaling unless stated otherwise. […]

[3] = test system: HEKs; experiment: EarlyTox Cell Integrity assay after H2O2 treatment of HEKs with soluble QHREDGS peptide; format: cell-based, human; settings: 500 μM H2O2 for 2 h; soluble peptide 100 μM / 650 μM, 2 h pre-conditioning
Procedure: as §2
The EarlyTox™ Cell Integrity Kit (Molecular Devices, R8213) is based on two nuclear dyes: live red dye is cell permeant and marks both live and dead cells (Excitation: 622 nm/Emission: 645 nm); dead green dye is cell impermeant and stains only cells with damaged outer membranes (Excitation: 503 nm/Emission: 526 nm). […] The plate was then incubated at 37° C. for 30 min and imaged using a SpectraMax i3 plate reader (Molecular Devices). The percentage of viable cells after H2O2 treatment on chitosan-collagen films in the presence or absence of QHREDGS peptide was normalized to the viability percentage of non-treated controls on the same coating film condition.

[4] = test system: HEKs; experiment: HEK migration on collagen coated surfaces with soluble QHREDGS peptide; format: cell-based, human; settings: soluble peptide 100 μM or 650 μM; collagen-coated surface; 24 h
Procedure: as §1
Culture-inserts were purchased from Ibidi® and carefully placed on the chitosan-collagen films in 24-wells. HEKs were seeded in complete EpiLife medium at 0.3-0.4×10^6 cells/mL with 70-100 μL per chamber and allowed to attach for 2 h. The culture-inserts were then carefully lifted and the unattached HEKs were immediately removed by rinsing twice using warm PBS. Basal EpiLife medium was then added to the wells and the wells were imaged every 2 h for 8 h and the next day using the SpectraMax i3 plate reader. Confluent HEK monolayers were wounded (time 0) and maintained for 24 h in EpiLife basal medium with 0.12 mM Ca2+. The wounds were outlined and the area at the various time points was normalized to the initial wound size (time 0). After 24 h, HEKs were fixed with 4% paraformaldehyde.

Substance: QHREDGS [QHREDGS peptide]
- percentage of proliferating HEKs (BrdU incorporation) [1]: not affected
- phosphorylation of Akt and MAPKp42/44 [2]: increased the phosphorylation of Akt and MAPKp42/44 and the increase was dose-dependent
- percentage of viable HEKs under oxidative stress [3]: significant dose-dependent increase
- HEK migration rate [4]: No significant difference
